Test results as given in PMC4501006, “Preliminary Characterization and In Vivo Studies of Structurally Identical ^18F- and ^125I-Labeled Benzyloxybenzenes for PET/SPECT Imaging of β-Amyloid Plaques” (Scientific Reports, 2015).
“And” between values parts separate entries of the source, which are not always exact repeats. Equal entries are not always repeated.

Experiments:
Aβ42 aggregates = Aβ42 aggregates (Homo sapiens, UniProt P05067); experiment: Competition binding assay using [125I]4 as radio-ligand; conditions: inhibition of [125I]4 binding to Aβ42 aggregates
Chain of Aβ42 aggregates (P05067 672-713 limits assumed): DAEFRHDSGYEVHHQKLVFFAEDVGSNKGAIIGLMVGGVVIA
Source text: The actual binding affinities agreed well with values predicted by the CoMFA and CoMSIA models, with pKi values deviating by less than 0.5 log unit. This satisfactory result strongly validated the reliability of the established 3D-QSAR models. This ability to accurately predict the binding activities of new benzyloxybenzene derivatives will be of great help for future efforts to design new potent Aβ imaging agents.

[1] = In vivo biodistribution in normal ICR mice; conditions: i.v.
Procedure: Histograms of brain and intestine uptake were presented in Fig. 6 for comparison, while detailed data concerning the in vivo biodistribution in normal ICR mice were collected in Table S3 in Supplementary information. […] [^125I]7a and [^125I]12a were rapidly cleared from the normal brain, with only small amounts of radioactivity remaining at 60 min post-injection (0.55% ID/g for [^125I]7a and 0.37% ID/g for [^125I]12a). […] In addition, no significant deiodination was observed (less than 0.5% ID in the thyroid at 60 min).
As the specific activity of ^18F-labeled ligands (about 60 GBq/μmol) was slightly lower than that of corresponding no-carrier-added ^125I-labeled ligands (81 GBq/μmol), the impact of specific activity on pharmacokinetics was studied. In vivo biodistribution of radioactivity after injection of carrier-added [^125I]7a with equal specific activity to corresponding [^18F]7a (60 GBq/μmol) was conducted in normal ICR mice through the same procedure.
A structural model of an Aβ fiber (PDB ID: 2LMO) derived from solid state NMR was downloaded from the RCSB Protein Data Bank (www.rcsb.org/pdb). Geometric optimization was performed using Gaussian 09 at the B3LYP/6–31 G and 3-21G levels in the water phase. Molecular docking was performed using AutoDock4.0, and the docking results were graphed with VMD 1.9.1 software. SYBYL-X 1.1 software was used to predict the binding affinities with previously constructed 3D-QSAR models. All reagents for chemical synthesis were used as purchased without further purification. [^125I]NaI was purchased from PerkinElmer and ^18F^– was kindly provided by the Chinese PLA General Hospital. ^1H and ^13C NMR spectra were recorded on a Bruker Avance III NMR spectrometer (400 MHz for ^1H; 101 MHz for ^13C) in CDCl3 or DMSO-d6 solutions at room temperature. Mass spectra were acquired with a GCT CA127 Micronass UK instrument. X-ray crystallographic data of compound 12a were collected on a Bruker Smart APEX II diffractometer (Bruker Co., Germany) and deposited at the Cambridge Crystallographic Data Centre as supplementary publication (no. CCDC 1063679). HPLC analysis was performed on a Shimadzu SCL-20 AVP equipped with a Bioscan Flow Count 3200 NaI/PMT γ-radiation scintillation detector and a SPD-20A UV detector, λ = 254 nm. A Venusil MP C18 reverse phase column (Agela Technologies, 5 μm, 4.6 × 250 mm) was used for separations and purity determinations with a binary gradient system (acetonitrile: water = 80%: 20%) at a 1.0 mL/min flow rate. Fluorescent observation was performed on the Axio Observer Z1 inverted fluorescence microscope (Zeiss, Germany) equipped with a DAPI filter set (excitation, 405 nm). Post-mortem brain sections from an autopsy-confirmed AD subject and a control subject were acquired from the Chinese Brain Bank. Transgenic mice (APPswe/PSEN1, male) and wild-type mice (C57BL6, male) were purchased from the Institute of Laboratory Animal Science, Chinese Academy of Medical Sciences. Normal ICR mice (20–22 g, male) were used for in vivo biodistribution, dynamic PET/CT and SPECT/CT scans, and biostability experiments. All experiments on mice were performed in accordance with the guidelines approved by the animal care committee of Beijing Normal University and Xiamen University.

[2] = In vivo metabolism (biostability), HPLC analysis of organ samples; conditions: ICR mice, i.v.
Procedure: All four radioactive ligands degraded to two corresponding polar radioactive products with shorter retention times. […] The good in vivo biostability of these compounds enhances their potential for SPECT mapping of the brain. […] In the plasma, all four ligands were rapidly converted to polar metabolites, leaving only approximately 10% of the parent tracers at 60 min. […] In contrast, the breakdown of [^125I]7a and [^125I]12a was so rapid that almost negligible amounts of parent tracers remained at 30 min (8.8% and 6.3%, respectively). The polar and hydrophilic metabolites metabolized by the liver could be absorbed by the intestine and excreted through the urine, in accordance with the biodistribution results. The rapid metabolism in the liver may be another reason for the faster clearance of these compounds from the normal brain. For structurally identical molecules labeled with radioactive isotopes at different positions, the in vivo metabolic pathways were expected to be the same. However, as only radioactive products can be detected with PET/SPECT scanners, different pharmacokinetics of the radioactive components could lead to different imaging results. […] The dual radiolabeled identical benzyloxybenzene derivatives in this study were expected to undergo the same metabolic reactions, generating different radioactive metabolites. Differences in the biochemical characteristics of the radiometabolites including absorption, distribution, metabolism and excretion are responsible for the discrepancy in the pharmacokinetics of the radioactivity.

Aβ plaques = Aβ plaques (Homo sapiens, UniProt P05067); experiment: In vitro autoradiography on AD human brain sections; format: binding
Chain of Aβ plaques (P05067 672-711 limits assumed): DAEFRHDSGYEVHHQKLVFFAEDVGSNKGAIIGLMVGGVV
Source text: Figure 5 In vitro autoradiography of [^125I]7a (a–d), [^18F]7a (e–h), [^125I]12a (i–l) and [^18F]12a (m–p).

[3] = Partition coefficient determination (log D); format: physicochemical
Procedure: An ideal Aβ imaging probe would combine a high binding affinity to Aβ plaques and excellent pharmacokinetics with high initial brain uptake and rapid washout from normal brain regions. Thus, the partition coefficients of these four radiolabeled ligands were determined to estimate their ability to penetrate the BBB.

## FCCOc1ccc(OCc2ccc(I)cc2)cc1 [7a]
Aβ42 aggregates
  Ki: 19.5 nM

## FCCOc1ccc(COc2ccc(I)cc2)cc1 [12a]
Aβ42 aggregates
  Ki: 23.9 nM

## FCCOc1ccc(COc2ccc([125I])cc2)cc1 [[^125I]12a]
[1]
  brain2 min/brain60 min ratio: 14.2
[1]; 2 min
  Biodistribution of radioactivity, blood: 4.96 ± 0.35 % injected dose per gram
  Biodistribution of radioactivity, brain: > 5 % injected dose per gram and 5.27 % injected dose per gram
  Biodistribution of radioactivity, heart: 6.61 ± 1.42 % injected dose per gram
  Biodistribution of radioactivity, intestine: 4.81 ± 0.97 % injected dose per organ
  Biodistribution of radioactivity, kidney: 9.16 ± 0.59 % injected dose per gram
  Biodistribution of radioactivity, liver: 18.12 ± 2.34 % injected dose per gram
  Biodistribution of radioactivity, lung: 10.30 ± 2.16 % injected dose per gram
  Biodistribution of radioactivity, muscle: 3.47 ± 0.45 % injected dose per gram
  Biodistribution of radioactivity, pancreas: 6.45 ± 0.56 % injected dose per gram
  Biodistribution of radioactivity, spleen: 2.85 ± 0.30 % injected dose per gram
  Biodistribution of radioactivity, stomach: 1.30 ± 0.14 % injected dose per organ
  Biodistribution of radioactivity, thyroid: 0.13 ± 0.02 % injected dose per organ
[1]; 2 min, listed as [125I]12a
  Biodistribution of radioactivity, brain: 5.27 ± 0.98 % injected dose per gram
[1]; 10 min
  Biodistribution of radioactivity, blood: 3.88 ± 0.79 % injected dose per gram
  Biodistribution of radioactivity, brain: 2.28 ± 0.27 % injected dose per gram
  Biodistribution of radioactivity, heart: 2.12 ± 0.16 % injected dose per gram
  Biodistribution of radioactivity, intestine: 10.68 ± 2.60 % injected dose per organ
  Biodistribution of radioactivity, kidney: 7.61 ± 1.23 % injected dose per gram
  Biodistribution of radioactivity, liver: 12.07 ± 1.06 % injected dose per gram
  Biodistribution of radioactivity, lung: 4.16 ± 0.26 % injected dose per gram
  Biodistribution of radioactivity, muscle: 1.31 ± 0.12 % injected dose per gram
  Biodistribution of radioactivity, pancreas: 2.44 ± 0.28 % injected dose per gram
  Biodistribution of radioactivity, spleen: 1.29 ± 0.06 % injected dose per gram
  Biodistribution of radioactivity, stomach: 1.34 ± 0.16 % injected dose per organ
  Biodistribution of radioactivity, thyroid: 0.13 ± 0.01 % injected dose per organ
[1]; 30 min
  Biodistribution of radioactivity, blood: 3.89 ± 0.53 % injected dose per gram
  Biodistribution of radioactivity, brain: 0.81 ± 0.06 % injected dose per gram
  Biodistribution of radioactivity, heart: 1.67 ± 0.09 % injected dose per gram
  Biodistribution of radioactivity, intestine: 16.61 ± 3.88 % injected dose per organ
  Biodistribution of radioactivity, kidney: 7.44 ± 0.90 % injected dose per gram
  Biodistribution of radioactivity, liver: 8.68 ± 1.02 % injected dose per gram
  Biodistribution of radioactivity, lung: 3.56 ± 0.38 % injected dose per gram
  Biodistribution of radioactivity, muscle: 0.99 ± 0.17 % injected dose per gram
  Biodistribution of radioactivity, pancreas: 1.75 ± 0.10 % injected dose per gram
  Biodistribution of radioactivity, spleen: 1.03 ± 0.10 % injected dose per gram
  Biodistribution of radioactivity, stomach: 2.02 ± 0.49 % injected dose per organ
  Biodistribution of radioactivity, thyroid: 0.19 ± 0.04 % injected dose per organ
[1]; 60 min
  Biodistribution of radioactivity, blood: 3.01 ± 1.07 % injected dose per gram
  Biodistribution of radioactivity, brain: 0.37 % injected dose per gram
  Biodistribution of radioactivity, heart: 1.17 ± 0.45 % injected dose per gram
  Biodistribution of radioactivity, intestine: 18.84 ± 8.75 % injected dose per organ
  Biodistribution of radioactivity, kidney: 6.09 ± 2.17 % injected dose per gram
  Biodistribution of radioactivity, liver: 4.64 ± 0.77 % injected dose per gram
  Biodistribution of radioactivity, lung: 3.11 ± 1.02 % injected dose per gram
  Biodistribution of radioactivity, muscle: 1.20 ± 0.26 % injected dose per gram
  Biodistribution of radioactivity, pancreas: 1.37 ± 0.41 % injected dose per gram
  Biodistribution of radioactivity, spleen: 0.84 ± 0.31 % injected dose per gram
  Biodistribution of radioactivity, stomach: 2.27 ± 0.40 % injected dose per organ
  Biodistribution of radioactivity, thyroid: 0.34 ± 0.10 % injected dose per organ
[1]; 60 min, listed as [125I]12a
  Biodistribution of radioactivity, brain: 0.37 ± 0.06 % injected dose per gram
[2]; post-injection time 2 min
  Percentage of Parent tracer, Brain: 92.1%
  Percentage of Parent tracer, Feces: 0.0%
  Percentage of Parent tracer, Liver: 49.1%
  Percentage of Parent tracer, Plasma: 88.4%
  Percentage of Parent tracer, Urine: 0.0%
[2]; post-injection time 10 min
  Percentage of Parent tracer, Brain: 82.1%
  Percentage of Parent tracer, Feces: 0.0%
  Percentage of Parent tracer, Liver: 21.5%
  Percentage of Parent tracer, Plasma: 29.6%
  Percentage of Parent tracer, Urine: 0.0%
[2]; post-injection time 30 min
  Percentage of Parent tracer, Brain: 78.3%
  Percentage of Parent tracer, Feces: 0.0%
  Percentage of Parent tracer, Liver: 6.3%
  Percentage of Parent tracer, Plasma: 26.3%
  Percentage of Parent tracer, Urine: 0.0%
[2]; post-injection time 60 min
  Percentage of Parent tracer, Brain: 68.6%
  Percentage of Parent tracer, Feces: 0.0%
  Percentage of Parent tracer, Liver: 3.8%
  Percentage of Parent tracer, Plasma: 4.68%
  Percentage of Parent tracer, Urine: 0.0%
Aβ plaques
  in vitro autoradiography, plaque labeling: specifically label Aβ deposits
[3]
  logD: 3.62 ± 0.15
